Format in all cases: in vivo
The test system of test [1] is Blumeria graminis f.sp. tritici. Briefly: Mixture with malonomicin, leaf disc, Blumeria graminis f.sp. tritici preventive. To be noted: foliar, 168 h, read-out: control of fungal growth. The text has this: (§1) A stock solution for oligosaccharide compound according to the present invention was produced in water plus 0.025% Tween®20. Malonomicin was produced according to Law et al, 2018 (Nature Catalys is | VOL 1 | DECEMBER 2018 | 977-984). A stock solution of malonomicin was produced in water plus 0.025% Tween®20.
(§2) Assays to test efficacy of mixtures of the compound of Formula (I) in combination with malonomicin on the control of fungal pathogens in a leaf disc assay were designed for two 24 well plates.
Table 11 and Table 12: Outline of 24 well testplate (3) and testplate (4) including concentration of compounds per well. The upper number in the cell indicates the oligosaccharide compound of the present invention concentration (ppm), the lower number malonomicin concentration (ppm). Column (1) holds a dilution series of compound of Formula (I), row (4-D) hold a dilution series of malonomicin. Well 4-D-(1) represents an untreated check. This design was applied for tests including Blumeria graminis f.sp. tritici (EPPO code: ERYSGT) with preventive spray timing and Parastagonospora nodorum (EPPO code: LEPTNO) with preventive spray timing.
(§3) A first set of master plates with 1× concentrated spray solution of the compound of Formula (I) stock diluted in water with concentrations according to Table 8, Table 9, Table 11 and Table 12, respectively, was prepared. Each well contained 0.025% Tween®20. Accordingly, a second set of master plates with 1× concentrated malonomicin stock diluted in water was prepared. Each well of the second set contained 0.025% Tween®20. Leaf segments placed on agar in 24 well plates are sprayed with 8 ul of solution from the master plate containing compound of Formula (I) and the leaf segments were let to dry, followed 2 hours later by 8 ul of solution from the master plate containing malonomicin. After second sprays have dried, leaf segments are infected with fungal spores to obtain a preventive application timing. Alternatively, leaf segments infected one day before spray of the compounds are used, resulting in a curative spray timing. In addition, several plates were produced where leaf segments were sprayed 2× in absence of test compound (with only Tween®20), representing the untreated check samples. For each leaf segment percent leaf coverage of disease symptoms was assessed. Percent leaf coverage reduction relative to the untreated check was calculated. Efficacy of the mixtures was tested in duplicate and on different fungal species. Reported efficacy values are the average of two replicate results.
Blumeria graminis f.sp. tritici (EPPO Code: ERYSGT) with Preventive Spray Timing
Wheat (cultivar Kanzler) leaf segments are placed on agar in multiwell plates (24-well format) and sprayed with test solutions (8 ul per well). After drying, the leaf disks are inoculated with spores of the fungus. After appropriate incubation the activity of a compound is assessed 7 dpi (days post inoculation) as preventive fungicidal activity.

In test [2] the test system is Zymoseptoria tritici. Briefly: Leaf painting assay in wheat seedling, Zymoseptoria tritici preventive. The procedure: Wheat seedlings of the variety Riband (for Zymoseptoria tritici trials) or variety Arina (for Puccinia recondite trials) were grown in the glasshouse until 14d after seeding. At this time, such seedlings usually have a first leaf fully emerged (designated L1), a second leaf fully emerged (L2) and a third leaf (L3) that is partially emerged and in the process of development. Using a permanent pen, two dots were applied on the second leaf such as to generate three segments of roughly equal size: Segment A (at the base), segment B (middle part) and segment C (tip of the leaf). A stock solution of the compound of Formula (I) was produced in water and of benzovindiflupyr in DMSO at a concentration of 10,000 ppm. […] The diluted compound was applied to the middle segment of L2 using a conventional cotton stick; the cotton stick was soaked in the diluted compound and rubbed several times on the adaxial leaf surface between the two marks. One day later, the complete plant was inoculated with a fungal spore suspension using a paint brush. The spore suspension was applied until before run-off.
For infection with Zymoseptoria tritici (preventive), the test plants were inoculated by spraying a spore suspension on them one day after application (1.5 Mio spores per ml in water supplemented with 0.01% Tween20). After an incubation period of 4 days at 22 °C/21 °C (day/night) and 95% rh, the inoculated test plants were kept at 22 °C/21 °C (day/night) and 70% rh in a greenhouse.
The three segments of the leaf were evaluated individually.

Test [3] deals with Puccinia recondita. In words: Mixture with malonomicin, leaf disc, Puccinia recondita curative. The note with it: foliar, 192 h, read-out: control of fungal growth.
From the text: An additional ingredient having pesticidal activity, for instance fungicidal activity may result in an unexpected synergistic activity. […] The action to be expected E for a given active ingredient combination obeys the so-called COLBY formula and can be calculated as follows (COLBY, S. R. “Calculating synergistic and antagonistic responses of herbicide combination”. Weeds, Vol. 15, pages 20-22; 1967): • ppm=milligrams of active ingredient (=a.i.) per liter of spray mixture • X=% action by active ingredient A) using p ppm of active ingredient • Y=% action by active ingredient B) using q ppm of active ingredient.
According to COLBY, the expected (additive) action of active ingredients A)+B) using p+q ppm of active ingredient is:
In mathematical terms, synergism corresponds to a positive value for the difference of (O-E). In the case of purely complementary addition of activities (expected activity), said difference (O-E) is zero. A negative value of said difference (O-E) signals a loss of activity compared to the expected activity.
as §1, §2
Table 8 and 9: Outline of 24 well testplate (1) and testplate (2) including concentration of compounds sprayed per well. The upper number in the cell indicates the oligosaccharide compound of the present invention concentration (ppm), the lower number malonomicin concentration (ppm). Column (1) holds a dilution series of compound of Formula (I), row (2-D) hold a dilution series of malonomicin. Well 2-D-(1) represents an untreated check. This design was applied for tests including Puccinia recondita (EPPO code: PUCCRE) with preventive and curative spray timing.
as §3
Puccinia recondita (EPPO Code: PUCCRE) with Curative Spray Timing.
Wheat (cultivar Kanzler) leaf segments are placed on agar in multiwell plates (24-well format). The leaf disks are then inoculated with a spore suspension of the fungus. One day after inoculation the test solution is sprayed (8 ul per well). After appropriate incubation the activity of a compound is assessed 8 dpi (days after inoculation) as curative fungicidal activity

As for `CC(=O)NC1C(OCC(OC2OC(CO)C(O)C(O)C2O)C2OC(OC3C(O)C(CO)OC(OC4(CO)OC(C(O)CO)C(O)C4OC4OC(CO)C(O)C(O)C4O)C3O)C(O)C(O)C2OC2OC(C(O)CO)C(O)C(O)C2OC2OCC(OC(N)=O)C(O)C2O)OC(CO)C(O)C1O` (stereo not shown) [compound of Formula (I)], the inhibition of growth at 9.38 µg/mL in test [1] (Formula (I) 9.38 ppm solo) was 10%. Moreover, in test [1] (Formula (I) 18.75 ppm solo), the inhibition of growth at 18.75 µg/mL was 0%. Also, the inhibition of growth at 37.5 µg/mL in test [1] (Formula (I) 37.5 ppm solo) was found to be 0%. Besides, the inhibition of growth at 75 µg/mL in test [1] (Formula (I) 75 ppm solo) is 20%. Moreover, in test [1] (Formula (I) 150 ppm solo), the inhibition of growth at 150 µg/mL came to 0%. Further, the inhibition of growth at 300 µg/mL in test [1] (Formula (I) 300 ppm solo) was 10%. Further, the inhibition of growth at 600 µg/mL in test [1] (Formula (I) 600 ppm solo) was 10%. In addition, the “% reduction fungal growth” value in test [2] (Experiment 1, 200.00 ppm, base segment, preventive) was found to be 24%; in test [2] (Experiment 1, 200.00 ppm, middle segment (treated), preventive), 93%; in test [2] (Experiment 1, 200.00 ppm, tip segment, preventive), 99%; in test [2] (Experiment 3, 400.00 ppm, base segment, preventive), 1%; in test [2] (Experiment 3, 400.00 ppm, middle segment (treated), preventive), 96%; in test [2] (Experiment 3, 400.00 ppm, tip segment, preventive), 100%. Also, the “activity against growth of fungus” value in test [2] (leaf painting, preventive) was “active against growth”. Moreover, the “control on treated and above treated area” value in test [2] (middle segment treated) is “provided control on the treated area (middle segment) as well as the above treated area (tip)”. Also, in test [3] (Formula (I) 3.13 ppm solo), the inhibition of growth at 3.13 µg/mL stood at 0%. The inhibition of growth at 6.25 µg/mL in test [3] (Formula (I) 6.25 ppm solo) stood at 0%. In test [3] (Formula (I) 12.5 ppm solo), the inhibition of growth at 12.5 µg/mL was 10%. The inhibition of growth at 25 µg/mL in test [3] (Formula (I) 25 ppm solo) came out at 10%. Also, the inhibition of growth at 50 µg/mL in test [3] (Formula (I) 50 ppm solo) stood at 20%. Moreover, the inhibition of growth at 100 µg/mL in test [3] (Formula (I) 100 ppm solo) was found to be 70%. In test [3] (Formula (I) 200 ppm solo), the inhibition of growth at 200 µg/mL was 80%.
